Among the test systems are UACC-62 melanoma; HS 578T breast; SW-620 colon; SK-OV-3 ovarian; RXF 393 renal; MCF7 breast; NCI-H460 lung; OVCAR-5 ovarian; HL-60(TB) leukemia; ACHN renal.
What all share (assay): inhibition of tumour cell growth, NCI panel, 48 h

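1) Cells in 96-well plates. 2) Compound, 48 h, 5 concentrations. 3) Linear interpolation between surrounding doses. 4) Unreached endpoint = highest concentration. TGI: concentration producing complete growth inhibition.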 Where a SMILES comes first, the peptide text is derived from it. [ ]: non-standard residue; d: D form. The star is where a group is joined. X28 = COC1=CC(=O)N(C(=O)[C@@H](O*)C(C)C)[C@H]1Cc1ccccc1; NMeL = CN[C@@H](CC(C)C)C(=O)O; Cbz = O=C(OCc1ccccc1)*

These results are taken from PubChem BioAssay (NCI).

With `Nc1ccc(S(=O)(=O)c2ccc(N=[N+]([O-])c3ccc(S(=O)(=O)c4ccc(N)cc4)cc3)cc2)cc1`, the TGI in the assay on UACC-62 melanoma was > 100 µM; in the assay with HS 578T breast, > 74.7 µM; in the assay on SW-620 colon, > 100 µM; in the assay with SK-OV-3 ovarian, > 90.6 µM; with RXF 393 renal it was 57.8 µM; in the assay on MCF7 breast, > 100 µM. Besides, the TGI in the assay on NCI-H460 lung, in the assay with OVCAR-5 ovarian, in the assay on HL-60(TB) leukemia and in the assay with ACHN renal was > 100 µM each time.

As for `CC(=O)C1C(=O)C(=O)N(c2ccc([N+](=O)[O-])cc2Cl)C1=O` (stereo not given), the TGI with UACC-62 melanoma, with HS 578T breast, in the assay on SW-620 colon, in the assay with SK-OV-3 ovarian, in the assay on RXF 393 renal and in the assay with MCF7 breast was > 100 µM throughout. Besides, the TGI with NCI-H460 lung, in the assay on OVCAR-5 ovarian, with HL-60(TB) leukemia and in the assay on ACHN renal was > 100 µM in each case.

As to `COC(=O)C1=C2Nc3ccccc3C23CCN2C(O)C4(CC5CC67CCOC6CCN6CCC8(c9cccc(OC)c9N(C4)C58O)C67)C4OCCC4(C1)C23` (stereo not given), the TGI is > 100 µM in the assay on UACC-62 melanoma; 77.5 µM with HS 578T breast; > 100 µM in the assay on SW-620 colon; > 100 µM in the assay with SK-OV-3 ovarian; > 100 µM in the assay with RXF 393 renal; > 100 µM in the assay with MCF7 breast. Besides, the TGI in the assay with NCI-H460 lung, in the assay with OVCAR-5 ovarian, in the assay on HL-60(TB) leukemia and with ACHN renal was > 100 µM in each case.

Consider `COC(=O)C1(Cc2ccc3c(c2)CCC3)Cc2cc3c(cc2C1=O)CCC3` (stereo not given), for which the TGI in the assay with UACC-62 melanoma, in the assay with HS 578T breast, with SW-620 colon, with SK-OV-3 ovarian, with RXF 393 renal and with MCF7 breast was > 46.4 µM throughout. Moreover, the TGI in the assay on NCI-H460 lung was > 46.4 µM; in the assay with OVCAR-5 ovarian, > 46.4 µM; with HL-60(TB) leukemia it was 17.9 µM; with ACHN renal, > 46.4 µM.

`CC(C)=CCC[C@@H](C)C1=C(O)C(Nc2ccccc2F)=C(C)C(=O)C1=O`: the TGI with UACC-62 melanoma is > 79.3 µM; in the assay with HS 578T breast, 54.8 µM; in the assay with SW-620 colon, > 100 µM; in the assay with SK-OV-3 ovarian, > 100 µM; in the assay on RXF 393 renal it was > 57.1 µM; in the assay on MCF7 breast it was > 90 µM. Also, the TGI in the assay with NCI-H460 lung was > 100 µM; in the assay on OVCAR-5 ovarian it was > 100 µM; in the assay with HL-60(TB) leukemia, 5.61 µM; in the assay on ACHN renal, 49.5 µM.

As for `COC(=O)Nc1nc2ccc(NS(=O)(=O)c3ccc(F)cc3)cc2[nH]1`, the TGI with UACC-62 melanoma was > 100 µM; in the assay on HS 578T breast, 9.66 µM; in the assay with SW-620 colon, > 100 µM; with SK-OV-3 ovarian, > 100 µM; with RXF 393 renal, 78.6 µM; in the assay with MCF7 breast it was > 100 µM. Also, the TGI with NCI-H460 lung is > 100 µM; in the assay with OVCAR-5 ovarian, > 100 µM; in the assay on HL-60(TB) leukemia, 8.45 µM; in the assay on ACHN renal it was > 100 µM.

Take `COC(=O)C(Cc1ccccc1)NC(=O)C(CCCN=C(N)N)NC(=O)OCc1ccccc1` (stereo not given): the TGI in the assay with UACC-62 melanoma, in the assay on HS 578T breast, with SW-620 colon, in the assay on SK-OV-3 ovarian, with RXF 393 renal and with MCF7 breast was > 100 µM each time. Moreover, the TGI with NCI-H460 lung, in the assay with OVCAR-5 ovarian, with HL-60(TB) leukemia and in the assay with ACHN renal was > 100 µM in each case.

Turning to `CC[C@@]1(O)C(=O)OCc2c1cc1n(c2=O)Cc2c-1nc1ccccc1c2/C=N\NC(=O)C(N)=O`, the TGI in the assay on UACC-62 melanoma was 3.54 µM; in the assay on HS 578T breast it was > 100 µM; in the assay on SW-620 colon, > 100 µM; with SK-OV-3 ovarian, 27.5 µM; in the assay on RXF 393 renal, 37.5 µM; in the assay with MCF7 breast, > 45.4 µM. Also, the TGI in the assay with NCI-H460 lung was 29.9 µM; in the assay with OVCAR-5 ovarian, > 100 µM; in the assay on HL-60(TB) leukemia, > 100 µM; with ACHN renal, 0.814 µM.

Take `COC1=CC(=O)N(C(=O)[C@@H](OC(=O)[C@@H]2CCCN2C(=O)[C@@H]2CCCN2C(=O)[C@H](CC(C)C)N(C)C(=O)[C@@H](NC(=O)[C@@H](NC(=O)OCc2ccccc2)C(C)C)C(C)C)C(C)C)[C@H]1Cc1ccccc1` (Cbz-VV[NMeL]PP-X28): the TGI with UACC-62 melanoma is > 100 µM; in the assay on HS 578T breast, > 100 µM; in the assay on SW-620 colon, > 100 µM; in the assay on SK-OV-3 ovarian it was > 100 µM; in the assay with RXF 393 renal, 38.9 µM; in the assay with MCF7 breast it was > 100 µM. In addition, the TGI with NCI-H460 lung, in the assay with OVCAR-5 ovarian, with HL-60(TB) leukemia and in the assay with ACHN renal was > 100 µM each time.

As to `CCC(=O)n1c(=O)n(-c2ccc([N+](=O)[O-])cc2)c(=O)n1C(=O)CC`, the TGI in the assay with UACC-62 melanoma, in the assay with HS 578T breast, with SW-620 colon, with SK-OV-3 ovarian, in the assay with RXF 393 renal and in the assay with MCF7 breast was > 100 µM throughout. The TGI in the assay with NCI-H460 lung, with OVCAR-5 ovarian, in the assay on HL-60(TB) leukemia and in the assay with ACHN renal was > 100 µM throughout.

In the case of `CNC(=O)C(NC(=O)[C@H](CC(C)C)NC(=O)[C@@H](S)CCN1C(=O)N(C)C(C)(C)C1=O)C(C)(C)C` (stereo not given in full), the TGI in the assay with UACC-62 melanoma, in the assay on HS 578T breast, in the assay on SW-620 colon, with SK-OV-3 ovarian, in the assay on RXF 393 renal and in the assay with MCF7 breast was > 100 µM each time. The TGI in the assay with NCI-H460 lung, with OVCAR-5 ovarian, with HL-60(TB) leukemia and with ACHN renal was > 100 µM each time.
